Consider 22 compounds from BindingDB's records for doi:10.1016/0968-0896(96)00130-7 (Sankyo, 1996).

pKi: −log10 of the molar value.

This test has as its target T1, Dimer of Gag-Pol polyprotein [489-587] (Human immunodeficiency virus 1, UniProt P12497).
T1 construct: 489-587
Briefly: Protease Inhibition Assay. Particulars: pH 4.7; 37 °C. The method, then:
The inhibitory activities of the compounds toward HIV-1 PR were determined by sodium dodecyl sulfate-polyacrylamide gel electrophoresis (SDS-PAGE) assay. The Ki values of active compounds were determined using the partially purified protease and the synthetic substrate Ac-Ser-Gln-AsnTyr-Pro-Ile-Val-NH2.

For orientation: pKi means −log10 of the Ki, conventionally taken in molar units. Higher therefore signals a low Ki. Consider `Cn1cc(C(=O)N[C@@H](CC(N)=O)C(=O)N[C@@H](Cc2ccccc2)[C@H](O)C(=O)N2C[C@@H](Cl)C[C@H]2C(=O)NC(C)(C)C)c2ccccc21` [(1-Methylindole-3-carbonyl)- Asn - (2S,3S)-AHPBA-[4(S)-chloro]Pro tert-butylamide], for which the pKi is 7.70.

In the case of `CC(C)(C)NC(=O)[C@@H]1C[C@H](Cl)CN1C(=O)[C@@H](O)[C@H](Cc1ccccc1)NC(=O)[C@H](CC(N)=O)NC(=O)c1noc2ccccc12` [(2S)-2-(1,2-benzoxazol-3-ylformamido)-N-[(2S,3S)-4-[(2S,4S)-2-(tert-butylcarbamoyl)-4-chloropyrrolidin-1-yl]-3-hydroxy-4-oxo-1-phenylbutan-2-yl]butanediamide], the pKi was 7.55.

Consider `Cn1nc(C(=O)N[C@@H](CC(N)=O)C(=O)N[C@@H](Cc2ccccc2)[C@H](O)C(=O)N2C[C@@H](Cl)C[C@H]2C(=O)NC(C)(C)C)c2ccccc21` [(2S)-N-[(2S,3S)-4-[(2S,4S)-2-(tert-butylcarbamoyl)-4-chloropyrrolidin-1-yl]-3-hydroxy-4-oxo-1-phenylbutan-2-yl]-2-[(1-methyl-1H-indazol-3-yl)formamido]butanediamide], for which the pKi was 7.80.

The compound `CC(C)(C)NC(=O)[C@@H]1C[C@H](Cl)CN1C(=O)[C@@H](O)[C@H](Cc1ccccc1)NC(=O)[C@H](CC(N)=O)NC(=O)c1cc2cc(F)ccc2[nH]1` [(2S)-N-[(2S,3S)-4-[(2S,4S)-2-(tert-butylcarbamoyl)-4-chloropyrrolidin-1-yl]-3-hydroxy-4-oxo-1-phenylbutan-2-yl]-2-[(5-fluoro-1H-indol-2-yl)formamido]butanediamide] showed a pKi of 7.90.

`COc1ccc2[nH]c(C(=O)N[C@@H](CC(N)=O)C(=O)N[C@@H](Cc3ccccc3)[C@H](O)C(=O)N3C[C@@H](Cl)C[C@H]3C(=O)NC(C)(C)C)cc2c1` [(2S)-N-[(2S,3S)-4-[(2S,4S)-2-(tert-butylcarbamoyl)-4-chloropyrrolidin-1-yl]-3-hydroxy-4-oxo-1-phenylbutan-2-yl]-2-[(5-methoxy-1H-indol-2-yl)formamido]butanediamide]: the pKi is 7.67.

On to `COc1cccc2cc(C(=O)N[C@@H](CC(N)=O)C(=O)N[C@@H](Cc3ccccc3)[C@H](O)C(=O)N3C[C@@H](Cl)C[C@H]3C(=O)NC(C)(C)C)oc12` [(2S)-N-[(2S,3S)-4-[(2S,4S)-2-(tert-butylcarbamoyl)-4-chloropyrrolidin-1-yl]-3-hydroxy-4-oxo-1-phenylbutan-2-yl]-2-[(7-methoxy-1-benzofuran-2-yl)formamido]butanediamide], for which the pKi is 8.35.

Compound `CC(C)(C)NC(=O)[C@@H]1C[C@H](Cl)CN1C(=O)[C@@H](O)[C@H](Cc1ccccc1)NC(=O)[C@H](CC(N)=O)NC(=O)c1cnc2ccccc2n1` [(Quinoxaline-2-carbonyl)-Asn-(2S,3S)-AHPBA-[4(S)-chloro]Pro tert-butylamide] showed a pKi of 8.33.

`CC(C)(C)NC(=O)[C@@H]1CC(F)CN1C(=O)[C@@H](O)[C@H](Cc1ccccc1)NC(=O)[C@H](CC(N)=O)NC(=O)OCc1ccccc1` (stereo partly drawn) [Z-Asn-(2S,3S)-AHPBA-[4(S)-fluoro] Pro tert-butylamide]: the pKi was 7.74.

In turn, `CC(C)(C)NC(=O)[C@@H]1CC(Br)CN1C(=O)[C@@H](O)[C@H](Cc1ccccc1)NC(=O)[C@H](CC(N)=O)NC(=O)OCc1ccccc1` (stereo partly drawn) [Z-Asn-(2S,3S)-AHPBA.[4(S)-bromo]Pro tert-butylamide] gave a pKi of 7.65.

`CC(C)(C)NC(=O)[C@@H]1C[C@@H](Cl)CN1C(=O)[C@@H](O)[C@H](Cc1ccccc1)NC(=O)[C@H](CC(N)=O)NC(=O)OCc1ccccc1` [Z-Asn-(2S,3S).AHPBA. [4(R ).chloro] Pro tert-butylamide]: the pKi was 7.05.

The compound `CC(C)(C)NC(=O)[C@@H]1CC(=O)CN1C(=O)[C@@H](O)[C@H](Cc1ccccc1)NC(=O)[C@H](CC(N)=O)NC(=O)OCc1ccccc1` [Z-Asn.(2S,3S)-AHPBA.(4.oxo)Pro tert-butylamide] showed a pKi of 7.90.

Compound `CC(C)(C)NC(=O)[C@@H]1[C@@H](Cl)CCN1C(=O)[C@@H](O)[C@H](Cc1ccccc1)NC(=O)[C@H](CC(N)=O)NC(=O)OCc1ccccc1` [Z-Asn.(2S,3S)-AHPBA.[3(S)-chloro]Pro tert-butylamide] had a pKi of 7.84.

`CC(C)(C)NC(=O)[C@@H]1CC(O)CN1C(=O)[C@@H](O)[C@H](Cc1ccccc1)NC(=O)[C@H](CC(N)=O)NC(=O)OCc1ccccc1` (stereo partly drawn) [Z.Asn-(2S,3S)-AHPBA-[4(S)-hydroxy]Pro tert-butylamide]: the pKi is 9.00.

Compound `CC(C)(C)NC(=O)[C@@H]1CC(Sc2ccccc2)CN1C(=O)[C@@H](O)[C@H](Cc1ccccc1)NC(=O)[C@H](CC(N)=O)NC(=O)OCc1ccccc1` (stereo partly drawn) [Z.Asn-(2S,3S)-AHPBA-[4(S)-phenylthio]Pro tert-butylamide] showed a pKi of 6.90.

Compound `CC(C)(C)NC(=O)[C@@H]1[C@@H](O)CCN1C(=O)[C@@H](O)[C@H](Cc1ccccc1)NC(=O)[C@H](CC(N)=O)NC(=O)OCc1ccccc1` [Z.Asn-(2S,3S).AHPBA.[3(S)-hydroxy]Pro tert-butyl-amide] had a pKi of 7.49.

Consider `CC(C)(C)NC(=O)[C@@H]1C(O)CCN1C(=O)[C@@H](O)[C@H](Cc1ccccc1)NC(=O)[C@H](CC(N)=O)NC(=O)OCc1ccccc1` (stereo partly drawn) [benzyl N-[(1S)-1-{[(2S,3S)-4-[(2S)-2-(tert-butylcarbamoyl)-3-hydroxypyrrolidin-1-yl]-3-hydroxy-4-oxo-1-phenylbutan-2-yl]carbamoyl}-2-carbamoylethyl]carbamate], for which the pKi is 10.00.

Regarding `CC(C)(C)NC(=O)[C@@H]1CC(F)(F)CN1C(=O)[C@@H](O)[C@H](Cc1ccccc1)NC(=O)[C@H](CC(N)=O)NC(=O)OCc1ccccc1` [benzyl N-[(1S)-1-{[(2S,3S)-4-[(2S)-2-(tert-butylcarbamoyl)-4,4-difluoropyrrolidin-1-yl]-3-hydroxy-4-oxo-1-phenylbutan-2-yl]carbamoyl}-2-carbamoylethyl]carbamate], the pKi is 7.46.

Regarding `COC1(OC)C[C@@H](C(=O)NC(C)(C)C)N(C(=O)[C@@H](O)[C@H](Cc2ccccc2)NC(=O)[C@H](CC(N)=O)NC(=O)OCc2ccccc2)C1` [benzyl N-[(1S)-1-{[(2S,3S)-4-[(2S)-2-(tert-butylcarbamoyl)-4,4-dimethoxypyrrolidin-1-yl]-3-hydroxy-4-oxo-1-phenylbutan-2-yl]carbamoyl}-2-carbamoylethyl]carbamate], the pKi is 7.04.

Turning to `CC(C)(C)NC(=O)[C@@H]1CC(N2CCOCC2)CN1C(=O)[C@@H](O)[C@H](Cc1ccccc1)NC(=O)[C@H](CC(N)=O)NC(=O)OCc1ccccc1` (stereo partly drawn) [benzyl N-[(1S)-1-{[(2S,3S)-4-[(2S)-2-(tert-butylcarbamoyl)-4-(morpholin-4-yl)pyrrolidin-1-yl]-3-hydroxy-4-oxo-1-phenylbutan-2-yl]carbamoyl}-2-carbamoylethyl]carbamate], the pKi is 9.00.

As for `CC(C)(C)NC(=O)[C@@H]1CC(Cl)CN1C(=O)[C@@H](O)[C@H](Cc1ccccc1)NC(=O)[C@H](CC(N)=O)NC(=O)OCc1ccccc1` (stereo partly drawn) [benzyl N-[(1S)-1-{[(2S,3S)-4-[(2S)-2-(tert-butylcarbamoyl)-4-chloropyrrolidin-1-yl]-3-hydroxy-4-oxo-1-phenylbutan-2-yl]carbamoyl}-2-carbamoylethyl]carbamate], the pKi is 8.10.

In turn, `CC(C)(C)NC(=O)[C@@H]1CCCN1C(=O)[C@@H](O)[C@H](Cc1ccccc1)NC(=O)[C@H](CC(N)=O)NC(=O)OCc1ccccc1` [benzyl N-[(1S)-1-{[(2S,3S)-4-[(2S)-2-(tert-butylcarbamoyl)pyrrolidin-1-yl]-3-hydroxy-4-oxo-1-phenylbutan-2-yl]carbamoyl}-2-carbamoylethyl]carbamate] gave a pKi of 7.24.

`CC(C)(C)NC(=O)[C@@H]1C[C@@H](O)CN1C(=O)[C@@H](O)[C@H](Cc1ccccc1)NC(=O)[C@H](CC(N)=O)NC(=O)OCc1ccccc1` [benzyl N-[(1S)-1-{[(2S,3S)-4-[(2S,4R)-2-(tert-butylcarbamoyl)-4-hydroxypyrrolidin-1-yl]-3-hydroxy-4-oxo-1-phenylbutan-2-yl]carbamoyl}-2-carbamoylethyl]carbamate] showed a pKi of 7.25.
